From publication PMC10874388, “Cyclic peptides discriminate BCL-2 and its clinical mutants from BCL-XL by engaging a single-residue discrepancy” (Nature Communications, 2024)
Where “and” joins values, the source holds several entries; their conditions need not be identical. Identical values can stand only once. Starred links: 1 amine or outer side, 2 acyl side, 3 side chain; linkers in the order of their positions; H or OH if unused. Positions of bridges follow the written chain, without caps; N, C: chain ends. Residues, ends and D or L forms follow the SMILES beside them. No end group written: not given here. X1 = O=C(C[*:2])NCCNC(=O)c1ccc(C2=N[C@H](C(=O)[*:1])CS2)cc1; cADT = 2-aryl-4,5-dihydrothiazole (ADT) linker

Assays:
RS4:11 cells = assay: Cell viability assay (CellTiter-Glo), RS4:11; format: cell-based; conditions: RS4:11, single wells
Description: (§1) The cell lines Jurkat (TIB-152), El4 (TIB-39), Daudi (ccl-213), RS4:11 (crl-1873), A549 (ccl-185), HepG2 (hb-8065) and PANC-1 (crl-1469) were purchased from ATCC (American Type Culture Collection), and MGC-803 (C6582) was purchased from Beyotime (https://www.beyotime.com/product/C6582.htm). […] Daudi and RS4:11 cells were cultured in RPMI-1640 medium (HyClone, SH30809.01) and 10% FBS (Gibco, 10099-141), whereas HepG2, MGC-803 and PANC-1 cells were cultured in MDEM (HyClone, SH30243.01). Cells were maintained at 37 °C under a humidified, 5% (v/v) CO2-containing atmosphere.
(§2) Cell viability was measured using CellTiter-Glo® 2.0 Reagent (Promega, G9242). […] After different inhibitors were added into serum-free medium and cultured for 4 h (RS4:11 for 6 h), FBS were supplemented to 10% and then incubated totally for 24 h or 48 h. Finally, the IC50 values were calculated based on measurements using a microplate reader (Thermo, Varioskan LUX). Statistical analysis was performed using software GraphPad Prism 7.0.

Jurkat cells [1] = assay: Apoptosis assay, Annexin V-FITC/PI staining and flow cytometry; format: cell-based; conditions: for cell apoptosis(%): Figure 6b, replicate values; for Proportion of apoptotic cells: Jurkat, 24 h
Description: Jurkat cells were seeded to 6-well plates at a density of 4 ×10^5 cells per well. Cells were incubated in the presence of DMSO, venetoclax at 2.5 μM, cp1-TAT at 30 μM, cp2-TAT at 30 μM, or cp3-TAT at 20 μM in serum-free RPMI medium for 4 h. After being incubated totally for 24 h, cells were washed once with PBS and stained with 100 μL binding buffer containing 5 μL Annexin V-FITC and 10 μL PI for 15 min, followed by addition of 400 μL binding buffer to detect cell apoptosis with FCM (BD FACSAria Fusion). Statistical analysis was performed using software FlowJo V10 and GraphPad Prism 7.0.

Jurkat cells [2] = assay: Mitochondrial membrane potential (JC-1), flow cytometry and fluorescence microscopy; format: cell-based; conditions: for Q1(%) / Q1(%)/Q3(%) / Q3(%): Figure 6d, 4h, replicate values; for ΔΨm (ratio of red over green fluorescence, Q1/Q3) / Relative ΔΨm by JC-1 fluorescence staining (microscopy): Jurkat; for ΔΨm (ratio of red over green fluorescence, Q1/Q3): 4 h treatment, JC-1, flow cytometry, n = 3; for Relative ΔΨm by JC-1 fluorescence staining (microscopy): 24 h treatment (Supplementary Fig. 13)
Description: For the mitochondrial membrane potential (ΔΨm) analysis, the mitochondrial membrane potential assay kit with JC-1 dye (Beyotime, C2006) was used according to the manufacturer’s protocol. […] The value of ΔΨm was expressed as the ratio of red fluorescence intensity over green fluorescence intensity. After treated with JC-1, fluorescence intensity of Jurkat cells was tested by flow cytometry (BD FACSAria Fusion) and fluorescence microscopy (NIKON Ti-E), respectively. All experiments were performed in triplicate. Statistical analysis was performed using software GraphPad Prism 7.0.

Daudi cells = assay: Cell viability assay (CellTiter-Glo), Daudi; format: cell-based; conditions: 48 h treatment, CellTiter-Glo
Description: as §1, §2

[3] = biological target: T1, chimeric human BCL-2 (residues 1-50 and 92-207, residues 35-50 replaced with residues 33-48 of BCL-XL) (human, UniProt P10415 1-34; Q07817-1 33-48; P10415 92-207, biotin (biotinylated for SPR; site not stated)); assay: SPR; Biacore T200; biotinylated proteins immobilised on a CAP sensor chip; peptides flowed in multiple cycles (25-12800 nM, depending on the peptides) at 30 uL/min; 10 mM PBS, 50 uM EDTA, 0.05% Tween-20, 25 °C; affinity fitting, 1:1 binding model; conditions: both partners purified
T1 construct: BCL-2, human, residues 1-34 of the chimera (internal loop 51-91 removed; residues 35-50 replaced with residues 33-48 of BCL-XL); BCL-XL, human, residues 33-48, in place of BCL-2 residues 35-50; BCL-2, human, residues 92-207; Biotinylated for SPR; used as such for crystals and fluorescence polarisation; also called BCL-2 WT; source: E. coli BL21 (DE3), purified (Ni-NTA, Superdex 75, RESOURCE Q, …)
T1 chain (looked up): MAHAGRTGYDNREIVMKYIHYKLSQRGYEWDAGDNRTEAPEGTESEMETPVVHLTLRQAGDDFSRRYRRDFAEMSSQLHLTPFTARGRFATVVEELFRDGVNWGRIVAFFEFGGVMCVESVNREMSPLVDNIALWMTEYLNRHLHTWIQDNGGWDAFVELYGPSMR

[4] = biological target: T2, human BCL-XL (residues 1-210, with 27-81 and 210-233 removed) (human, UniProt Q07817-1 1-209, 27-81 removed, biotin (biotinylated for SPR; site not stated)); assay: as above; conditions: both partners purified
T2 construct: BCL-XL, human; printed as residues 1-210, with 27-81 and 210-233 removed (so the last residue is 209 or 210); source: E. coli BL21 (DE3), purified (Ni-NTA, Superdex 75, RESOURCE Q, Superdex 200)
T2 sequence (Q07817 other isoform, or with tags, fused parts or gaps 27-81 removed | 27-81 removed): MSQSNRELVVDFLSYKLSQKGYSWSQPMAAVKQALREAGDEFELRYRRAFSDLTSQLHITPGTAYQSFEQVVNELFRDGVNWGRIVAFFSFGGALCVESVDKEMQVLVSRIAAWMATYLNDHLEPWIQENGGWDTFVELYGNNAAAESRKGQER

Molecule | raw luminescence reading (RS4:11 cells; 0.0488281 uM) | raw luminescence reading (RS4:11 cells; 0.0976562 uM) | raw luminescence reading (RS4:11 cells; 0.195312 uM) | raw luminescence reading (RS4:11 cells; 0.390625 uM) | raw luminescence reading (RS4:11 cells; 0.78125 uM) | raw luminescence reading (RS4:11 cells; 1.5625 uM) | raw luminescence reading (RS4:11 cells; 3.125 uM) | raw luminescence reading (RS4:11 cells; 6.25 uM) | raw luminescence reading (RS4:11 cells; 12.5 uM) | raw luminescence reading (RS4:11 cells; 25 uM) | cell apoptosis(%) (Jurkat cells [1]) | Q1(%) (Jurkat cells [2]) | Q1(%)/Q3(%) (Jurkat cells [2]) | Q3(%) (Jurkat cells [2]) | ΔΨm (ratio of red over green fluorescence, Q1/Q3) (Jurkat cells [2]) | Relative ΔΨm by JC-1 fluorescence staining (microscopy) (Jurkat cells [2]) | Kd [3] [nM] | Kd [4] [nM] | other results
CC[C@H](C)[C@@H]1NC(=O)[C@@H]2CCCN2C(=O)[C@@H]2CSC(=N2)c2ccc(cc2)C(=O)NCCNC(=O)CSC[C@@H](C(=O)NCC(=O)N[C@@H](CO)C(=O)NCC(=O)N[C@@H](CO)C(=O)N[C@@H](CCCNC(=N)N)C(=O)N[C@@H](CCCCN)C(=O)N[C@@H](CCCCN)C(=O)N[C@@H](CCCNC(=N)N)C(=O)N[C@@H](CCCNC(=N)N)C(=O)N[C@@H](CCC(N)=O)C(=O)N[C@@H](CCCNC(=N)N)C(=O)N[C@@H](CCCNC(=N)N)C(=O)N[C@@H](CCCNC(=N)N)C(N)=O)NC(=O)[C@H](Cc2ccccc2)NC(=O)[C@H](CCC(=O)O)NC(=O)[C@H](CC(=O)O)NC(=O)[C@H](Cc2c[nH]c3ccccc23)NC(=O)[C@H](CCC(=O)O)NC(=O)[C@H](Cc2ccc(O)cc2)NC(=O)[C@H](CCCNC(=N)N)NC1=O [cp2-TAT] (PIRYEWDEFCGSGSRKKRRQRRR-NH2; linker N-10 via X1; C-terminus assumed) | 377400 and 399400 and 472900 and 398600 and 396500 and 376600 | 367900 and 411600 and 442500 and 406100 and 405700 and 384000 | 397400 and 403000 and 448800 and 404500 and 392400 and 382800 | 444700 and 450800 and 451700 and 438000 and 424700 and 412100 | 472600 and 478400 and 471500 and 453400 and 442900 and 434600 | 448100 and 455300 and 501800 and 445000 and 424900 and 404900 | 365800 and 401400 and 456400 and 498100 and 396600 and 403200 | 354100 and 405500 and 450900 and 485900 and 401500 and 412400 | 349800 and 390500 and 462000 and 475300 and 407800 and 417800 | 354900 and 371900 and 417300 and 420500 and 396000 and 400300 | 18.83% and 24.52% | 90.3% and 89.6% and 90% | 12.1534 and 10.7049 and 11.4358 | 7.43% and 8.37% and 7.87% | 11.43 | slightly decreased |  |  | inhibition rate (RS4:11 cells; 0.0488281 uM, 0.0488281 µM): 9%; inhibition rate (RS4:11 cells; 0.390625 uM, 0.390625 µM): -7.55% and -9% and -6% and -2.71% and 0.339%; inhibition rate (RS4:11 cells; 0.78125 uM, 0.78125 µM): -14%; raw luminescence reading (RS4:11 cells; 50 uM): 273500 and 288400 and 308900 and 317300 and 306600 and 319600; inhibition rate (RS4:11 cells; 50 uM, 50 µM): 34% and 30% and 25% and 23% and 26%; raw luminescence reading (RS4:11 cells; 100 uM): 86770 and 92180 and 107300 and 109400 and 97150 and 101700; inhibition rate (RS4:11 cells; 100 uM, 100 µM): 79% and 78% and 74% and 77% and 75%; Proportion of apoptotic cells (Jurkat cells [1]; 30 μM): 18.83%
CC[C@H](C)[C@@H]1NC(=O)[C@@H]2CCCN2C(=O)[C@@H]2CSC(=N2)c2ccc(cc2)C(=O)NCCNC(=O)CSC[C@@H](C(=O)NCC(=O)N[C@@H](CO)C(=O)NCC(=O)N[C@@H](CO)C(=O)N[C@@H](CCCNC(=N)N)C(=O)N[C@@H](CCCCN)C(=O)N[C@@H](CCCCN)C(=O)N[C@@H](CCCNC(=N)N)C(=O)N[C@@H](CCCNC(=N)N)C(=O)N[C@@H](CCC(N)=O)C(=O)N[C@@H](CCCNC(=N)N)C(=O)N[C@@H](CCCNC(=N)N)C(=O)N[C@@H](CCCNC(=N)N)C(N)=O)NC(=O)[C@H](CCC(=O)O)NC(=O)[C@H](C(C)C)NC(=O)[C@H](CC(=O)O)NC(=O)[C@H](Cc2c[nH]c3ccccc23)NC(=O)[C@@H]2CCCN2C(=O)[C@H](Cc2ccc(O)cc2)NC(=O)[C@H](CCCNC(=N)N)NC1=O [cp3-TAT] (PIRYPWDVECGSGSRKKRRQRRR-NH2; linker N-10 via X1; C-terminus assumed) | 433900 and 423300 and 457600 and 413600 and 399000 and 376500 | 420200 and 404600 and 437700 and 401400 and 384500 and 361600 | 419000 and 421800 and 444400 and 422500 and 407600 and 396300 | 424000 and 396600 and 443200 and 395300 and 386700 and 379800 | 411200 and 409100 and 439500 and 400400 and 395700 and 387400 | 353400 and 425900 and 446500 and 460500 and 369200 and 455200 | 352000 and 428300 and 434800 and 455400 and 358000 and 465500 | 339600 and 384800 and 395500 and 428900 and 341900 and 416000 | 266500 and 298700 and 305700 and 333300 and 270500 and 326800 | 85450 and 98110 and 94850 and 106300 and 88910 and 106600 | 99.03% and 93.5% | 56.7% and 57.7% and 59.6% | 1.435 and 1.514 and 1.628 | 39.5% and 38.1% and 36.6% | 1.53 | red fluorescence almost disappeared |  |  | inhibition rate (RS4:11 cells; 12.5 uM, 12.5 µM): 37% and 29% and 28% and 21% and 36% and 23%; inhibition rate (RS4:11 cells; 25 uM, 25 µM): 80% and 77% and 78% and 75% and 79%; inhibition rate (RS4:11 cells; 50 uM): 100%; inhibition rate (RS4:11 cells; 100 uM): 100%; Proportion of apoptotic cells (Jurkat cells [1]; 20 μM): 99.03%; IC50 (Daudi cells): 7940 nM
CPIRYGWDEFC (linker 1-11 via cADT (inferred), cp4 is cp2 with E6 substituted by G6; source: synthetic peptide) [cp4] |  |  |  |  |  |  |  |  |  |  |  |  |  |  |  |  | 80 | 470 | 
CPIRYPWDEFC (linker 1-11 via cADT (inferred), cp5 is cp2 with E6 substituted by P6; source: synthetic peptide) [cp5] |  |  |  |  |  |  |  |  |  |  |  |  |  |  |  |  | 80 | 40 | 
